Experiments:
Experiment in all cases: relative viability (nuclei count vs DMSO), 5 days (fraction); higher = more cells survive
[1] = compound: CN(C)C(=N)NC(=N)N [Metformin] + CC(=O)Nc1cccc(-n2c(=O)n(C3CC3)c(=O)c3c(Nc4ccc(I)cc4F)n(C)c(=O)c(C)c32)c1 [Trametinib] (partner 0.02 µM)
How it was run: (§1)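 Relative viability equals treated-well nuclei counts divided by vehicle-well nuclei counts. Counts came from 4× images of lung cancer cell lines grown in 1536-well plates for 5 days after pin-tool dosing on the day after seeding. Dosing used one drug alone or a fixed anchor-drug dose plus five library-drug doses (not always all listed) in √10 steps, and values are medians of duplicate plates.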

[2] = compound: N#CC1(c2ccc(NC(=O)c3cccnc3NCc3ccncc3)cc2)CCCC1 [Apatinib] + COc1cc2c(Oc3ccc(NC(=O)C4(C(=O)Nc5ccc(F)cc5)CC4)cc3F)ccnc2cc1OCCCN1CCOCC1 [Foretinib] (partner 0.25 µM)
How it was run: as §1

[3] = compound: N#CC1(c2ccc(NC(=O)c3cccnc3NCc3ccncc3)cc2)CCCC1 [Apatinib] + CS(=O)(=O)CCNCc1ccc(-c2ccc3ncnc(Nc4ccc(OCc5cccc(F)c5)c(Cl)c4)c3c2)o1 [Lapatinib] (partner 2 µM)
How it was run: as §1

[4] = compound: CN(C)C(=N)NC(=N)N [Metformin] + Cc1nc(Nc2ncc(C(=O)Nc3c(C)cccc3Cl)s2)cc(N2CCN(CCO)CC2)n1 [Dasatinib] (partner 0.075 µM)
How it was run: as §1

NCI-H460 showed a relative viability ([1]; first compound 31.62 µM) of 0.122, a relative viability ([1]; first compound 100 µM) of 0.136 and a relative viability ([1]; first compound 316.23 µM) of 0.133. For the same cell line, the relative viability ([1]; first compound 1000 µM) was 0.253, the relative viability ([2]; first compound 0.08 µM) was 0.941 and the relative viability ([2]; first compound 0.253 µM) was 0.943. It also gave a relative viability ([2]; first compound 0.8 µM) of 0.942, a relative viability ([2]; first compound 2.53 µM) of 1.04 and a relative viability ([2]; first compound 8 µM) of 0.897. For the same cell line, the relative viability ([3]; first compound 0.08 µM) was 0.915, the relative viability ([3]; first compound 0.253 µM) was 0.93 and the relative viability ([3]; first compound 0.8 µM) was 0.796. For the same cell line, the relative viability ([3]; first compound 2.53 µM) was 0.905, the relative viability ([3]; first compound 8 µM) was 0.777 and the relative viability ([4]; first compound 10 µM) was 0.402. The relative viability ([4]; first compound 31.62 µM) was 0.546, the relative viability ([4]; first compound 100 µM) was 0.353 and the relative viability ([4]; first compound 316.23 µM) was 0.43. The relative viability ([4]; first compound 1000 µM) was 0.457.

Reference: the supplement of paper PMC10307832
